Reference: patent publication US4497802A, “N-Acyl glycopeptide derivatives” (Eli Lilly and Company, priority 1983, dated 1985)
Read-outs that look alike come from different tables or passages of the source.

Columns and labels:
[1] = system: Staphylococcus aureus V41; experiment: MIC, standard agar-dilution assay; type: cell-based
[2] = system: Staphylococcus epidermidis EPI2; experiment: MIC, standard agar-dilution assay; type: cell-based
[3] = system: Streptococcus pyogenes C203; experiment: MIC, standard agar-dilution assay; type: cell-based
[4] = system: Staphylococcus aureus X1.1; experiment: MIC, standard agar-dilution assay; type: cell-based
Streptococcus Group 9960 = experiment: MIC, standard agar-dilution assay; type: cell-based
[5] = system: Streptococcus pneumoniae Park I; type: cell-based; conditions: agar dilution
[6] = system: Streptococcus Group D X66; experiment: MIC, standard agar-dilution assay; type: cell-based
[7] = system: Staphylococcus aureus S13E; type: cell-based; conditions: agar dilution
Staphylococcus aureus = experiment: ED50 in experimentally infected mice; type: in vivo; conditions: mice infected with Staphylococcus aureus; administered subcutaneously 1 and 4 hours postinfection
[8] = system: Staphylococcus epidermidis EPI1; type: cell-based
[9] = system: Staphylococcus aureus X400; experiment: MIC, standard agar-dilution assay; type: cell-based; conditions: Staphylococcus aureus X400, methicillin-resistant strain
[10] = system: Haemophilus influenzae C.L.; experiment: MIC, standard agar-dilution assay; type: cell-based; conditions: ampicillin-sensitive strain
[11] = system: Haemophilus influenzae 76; experiment: MIC, standard agar-dilution assay; type: cell-based; conditions: Haemophilus influenzae 76, ampicillin-resistant strain
[12] = Staphylococcus aureus V41, penicillin-resistant strain, agar dilution
[13] = Streptococcus pyogenes C203, agar dilution
[14] = Staphylococcus aureus X1.1, agar dilution
[15] = Streptococcus Group 9960, agar dilution
[16] = Streptococcus Group D X66, agar dilution
[17] = Staphylococcus epidermidis EPI1, agar dilution

Substance | MIC [1, 12] [µg/mL] | MIC [2] [µg/mL] | MIC [3, 13] [µg/mL] | MIC [4, 14] [µg/mL] | MIC (Streptococcus Group 9960; [15]) [µg/mL] | MIC [5] | MIC [6, 16] [µg/mL] | MIC [7] [µg/mL] | ED50 (Staphylococcus aureus) [mg/kg × 2] | MIC [8, 17] [µg/mL] | MIC [9] [µg/mL] | MIC [10] | MIC [11] | MIC [1] [µg/mL] | MIC [3] [µg/mL] | MIC [4] [µg/mL] | MIC (Streptococcus Group 9960) [µg/mL] | MIC [6] [µg/mL] | MIC [8] [µg/mL]
N-(L-phenylalanyl)A35512B [Example 2] | 4 | 8 | 2 | 4 | 4 | 4 µg/mL | 4 | 4 | 5.87 | 4 | 8 |  |  |  |  |  |  |  | 
N--(3,5-dichlorobenzoyl)A35512B [Example 11] | 4 | 16 | 1 | 8 | 2 | 1 µg/mL | 4 | 8 | 11.8 | 4 | 8 | -- (Compound not active at less than 128 mcg/ml) | -- (Compound not active at less than 128 mcg/ml) |  |  |  |  |  | 
N--(11-aminoundecanoyl)A35512B [Example 7] | 4 | 16 | 2 | 4 | 4 | 4 µg/mL | 4 | 4 | 4.5 | 8 | 8 | -- (Compound not active at less than 128 mcg/ml) | -- (Compound not active at less than 128 mcg/ml) |  |  |  |  |  | 
N--(11-aminoundecanoyl)A35512B pseudoaglycone [Example 15] | 1 | 2 | 1 | 1 | 2 | -- (Compound not active at less than 128 mcg/ml) | 2 | 1 |  | 2 | 1 | -- (Compound not active at less than 128 mcg/ml) | -- (Compound not active at less than 128 mcg/ml) |  |  |  |  |  | 
N--(D-phenylglycyl)A35512B [Example 5] | 4 | 8 | 2 | 4 | 4 | 4 µg/mL | 8 | 8 | 14.4 | 4 | 8 |  |  |  |  |  |  |  | 
N--(L-phenylalanyl)A47934 [Example 24] | 0.06 | 0.25 | 0.25 | 0.06 | 1 | 0.06 µg/mL | 0.5 | 0.06 | < 0.31 | 0.125 | 0.25 | 4 µg/mL | 4 µg/mL |  |  |  |  |  | 
N--(nonanoyl)A35512B [Example 8] | 2 | 4 | 2 | 2 | 2 | 4 µg/mL | 4 | 2 | 11.34 | 2 | 2 |  |  |  |  |  |  |  | 
N--(nonanoyl)A35512B pseudoaglycone [Example 13] | 2 | 4 | 2 | 2 | 2 | 4 µg/mL | 4 | 2 |  | 2 | 2 | -- (Compound not active at less than 128 mcg/ml) | -- (Compound not active at less than 128 mcg/ml) |  |  |  |  |  | 
N--[(1-tetrazole)acetyl]A35512B [Example 10] | 4 | 16 | 2 | 4 | 8 | 4 µg/mL | 8 | 4 | 5.7 | 4 | 8 | -- (Compound not active at less than 128 mcg/ml) | -- (Compound not active at less than 128 mcg/ml) |  |  |  |  |  | 
N--[(3-sydnone)acetyl]A35512B [Example 12] |  | 16 |  |  |  | 2 µg/mL |  | 8 | 10.97 |  | 16 |  |  | 8 | 2 | 4 | 8 | 8 | 8
N--[N--(hexanoyl)-L-tryptophyl]A35512B [Example 3] | 8 | 8 | 1 | 4 | 2 | 1 µg/mL | 4 | 4 | 10.84 | 8 | 8 |  |  |  |  |  |  |  | 
N--[N--(t-Boc)--11-aminoundecanoyl)A35512B [Example 6] | 4 | 8 | 1 | 2 | 4 | 1 µg/mL | 2 | 4 |  | 8 | 4 |  |  |  |  |  |  |  | 
N--[N--(t-Boc)--11-aminoundecanoyl]A35512B pseudoaglycone [Example 14] | 8 | 16 | 4 | 8 | 8 | 4 µg/mL | 4 | 8 |  | 4 | 8 | -- (Compound not active at less than 128 mcg/ml) | -- (Compound not active at less than 128 mcg/ml) |  |  |  |  |  | 
N--[N--(t-Boc)--D-phenylglycyl]A35512B [Example 4] | 8 | 16 | 2 | 4 | 4 | 2 µg/mL | 8 | 8 |  | 8 | 16 | -- (Compound not active at less than 128 mcg/ml) | -- (Compound not active at less than 128 mcg/ml) |  |  |  |  |  | 
N--[N--(t-Boc)--L-phenylalanyl)A41030A [Example 16] | 0.25 | 0.5 | 0.5 | 0.25 | 0.125 | 0.5 µg/mL | 1 | 0.25 |  | 0.25 | 0.5 | 32 µg/mL | 32 µg/mL |  |  |  |  |  | 
N--[N--(t-Boc)--L-phenylalanyl)A47934 [Example 23] | 0.125 | 0.5 | 0.5 | 0.125 | 2 | 0.125 µg/mL | 1 | 0.125 |  | 0.125 | 0.25 | 8 µg/mL | 8 µg/mL |  |  |  |  |  | 
N--[p-(dodecyloxy)phenylpropanoyl]A35512B [Example 9] | 8 | 16 | 2 | 4 | 4 | 2 µg/mL | 4 | 8 | 70 | 16 | 8 |  |  |  |  |  |  |  | 
N-[N-(tert-butoxycarbonyl)-L-phenylalanyl]-A35512B [Example 1] | 8 | 32 | 1 | 8 | 2 | 2 µg/mL | 4 | 8 |  | 8 | 16 |  |  |  |  |  |  |  | 
